{"source": "patent US20260224584A1", "about": "(priority 2023, published 2026)", "note": "Counter-ions that a name gives are not always drawn."}
{"system": "Human WB (90%) CD69", "test": "Human WB (90%) CD69", "format": "cell-based", "details": "read-out: Human WB (90%) CD69 IC50 (nM); human whole blood (90%), CD69 readout", "units": {"IC50": "nM"}}
{"smiles": "CC(C)N1CCN(c2ccc(-c3cc(NCc4ccc(CN5CCOCC5)cc4)c4nc(C5CCS(=O)(=O)CC5)n(C)c4c3)cc2)CC1", "note": "[Example 43, 4-(6-(4-(4-isopropylpiperazin-1-yl)phenyl)-1-methyl-4-((4-(morpholinomethyl)benzyl)amino)-1H-benzo[d]imidazol-2-yl)tetrahydro-2H-thiopyran 1,1-dioxide, 2 TFA]", "IC50": 396}
{"smiles": "Cc1cc(C)nc(Nc2cc(-c3ccc(N4CCN(C(C)C)CC4)cc3)cc3c2nc(C2COC2)n3C)c1", "note": "[Example 44, N-(4,6-dimethylpyridin-2-yl)-6-(4-(4-isopropylpiperazin-1-yl)phenyl)-1-methyl-2-(oxetan-3-yl)-1H-benzo[d]imidazol-4-amine]", "IC50": 282}
{"smiles": "CC(C)N1CCN(c2ccc(-c3cc(NCCN4CCOCC4)c4nc(C5COC5)n(C)c4c3)cc2)CC1", "note": "[Example 45, 6-(4-(4-isopropylpiperazin-1-yl)phenyl)-1-methyl-N-(2-morpholinoethyl)-2-(oxetan-3-yl)-1H-benzo[d]imidazol-4-amine]", "IC50": 473}
{"smiles": "CC(C)N1CCN(c2ccc(-c3cc(NCc4ccc(CN5CCOCC5)cc4)c4nc(C5COC5)n(C)c4c3)cc2)CC1", "note": "[Example 46, 6-(4-(4-isopropylpiperazin-1-yl)phenyl)-1-methyl-N-(4-(morpholinomethyl)benzyl)-2-(oxetan-3-yl)-1H-benzo[d]imidazol-4-amine]", "IC50": 534}
{"smiles": "CC(C)N1CCN(c2ccc(-c3cc(NCCN4CCOCC4)c4nc(C5CCOCC5)n(C)c4c3)cc2)CC1", "note": "[Example 47, 6-(4-(4-isopropylpiperazin-1-yl)phenyl)-1-methyl-N-(2-morpholinoethyl)-2-(tetrahydro-2H-pyran-4-yl)-1H-benzo[d]imidazol-4-amine, 2 TFA]", "IC50": 181}
{"smiles": "Cc1cc(C)nc(Nc2cc(-c3ccc(N4CCN(C(C)C)CC4)cc3)cc3c2nc(C2CCOCC2)n3C)c1", "note": "[Example 48, N-(4,6-dimethylpyridin-2-yl)-6-(4-(4-isopropylpiperazin-1-yl)phenyl)-1-methyl-2-(tetrahydro-2H-pyran-4-yl)-1H-benzo[d]imidazol-4-amine, TFA]", "IC50": 109}
{"smiles": "Cc1cc(C)nc(Nc2cc(-c3ccc(N4CCN(C(C)C)CC4)cc3)cc3c2nc(-c2cnoc2)n3C)c1", "note": "[Example 49, N-(4,6-dimethylpyridin-2-yl)-6-(4-(4-isopropylpiperazin-1-yl)phenyl)-2-(isoxazol-4-yl)-1-methyl-1H-benzo[d]imidazol-4-amine, TFA]", "IC50": 1090}
{"smiles": "CC(C)N1CCN(c2ccc(-c3cc(NC4CCN(S(C)(=O)=O)CC4)c4nc(C5CCN(S(C)(=O)=O)CC5)n(C)c4c3)cc2)CC1", "note": "[Example 50, 6-(4-(4-isopropylpiperazin-1-yl)phenyl)-1-methyl-N,2-bis(1-(methylsulfonyl)piperidin-4-yl)-1H-benzo[d]imidazol-4-amine]", "IC50": 1530}
{"smiles": "Cc1cc(C)nc(Nc2cc(-c3ccc(N4CCN(C(C)C)CC4)cc3)cc3c2nc(-c2cc[nH]c2)n3C)c1", "note": "[Example 51, N-(4,6-dimethylpyridin-2-yl)-6-(4-(4-isopropylpiperazin-1-yl)phenyl)-1-methyl-2-(1H-pyrrol-3-yl)-1H-benzo[d]imidazol-4-amine]", "IC50": 61}
{"smiles": "Cc1cc(C)nc(Nc2cc(-c3ccc(N4CCN(C(C)C)CC4)cc3)cc3c2nc(-c2ccco2)n3C)c1", "note": "[Example 52, N-(4,6-dimethylpyridin-2-yl)-2-(furan-2-yl)-6-(4-(4-isopropylpiperazin-1-yl)phenyl)-1-methyl-1H-benzo[d]imidazol-4-amine, TFA]", "IC50": 62}
{"smiles": "Cc1cc(C)nc(Nc2cc(-c3ccc(N4CCN(C(C)C)CC4)cc3)cc3c2nc(-c2cc[nH]n2)n3C)c1", "note": "[Example 53, N-(4,6-dimethylpyridin-2-yl)-6-(4-(4-isopropylpiperazin-1-yl)phenyl)-1-methyl-2-(1H-pyrazol-3-yl)-1H-benzo[d]imidazol-4-amine, TFA]", "IC50": 75}
{"smiles": "CC(C)N1CCN(c2ccc(-c3cc(NC4CCN(S(C)(=O)=O)CC4)c4nc(N(C)C)n(C)c4c3)cc2)CC1", "note": "[Example 54, 6-(4-(4-isopropylpiperazin-1-yl)phenyl)-N2,N2,1-trimethyl-N4-(1-(methylsulfonyl)piperidin-4-yl)-1H-benzo[d]imidazole-2,4-diamine]", "IC50": 673}
{"smiles": "CC(C)N1CCN(c2ccc(-c3cc(NCc4cccc(S(C)(=O)=O)c4)c4nc(-c5ccc(S(C)(=O)=O)cc5)n(C)c4c3)cc2)CC1", "note": "[Example 55, 6-(4-(4-isopropylpiperazin-1-yl)phenyl)-1-methyl-N-(3-(methylsulfonyl)benzyl)-2-(4-(methylsulfonyl)phenyl)-1H-benzo[d]imidazol-4-amine]", "IC50": 1130}
{"smiles": "CC(C)N1CCN(c2ccc(-c3cc(NCc4ccc(S(C)(=O)=O)cc4)c4nc(-c5ccc(S(C)(=O)=O)cc5)n(C)c4c3)cc2)CC1", "note": "[Example 56, 6-(4-(4-isopropylpiperazin-1-yl)phenyl)-1-methyl-N-(4-(methylsulfonyl)benzyl)-2-(4-(methylsulfonyl)phenyl)-1H-benzo[d]imidazol-4-amine, TFA]", "IC50": 1640}
{"smiles": "Cc1nc2c(NC3CCN(C4COC4)CC3)cc(-c3ccc(N4CCN(C(C)C)CC4)cc3)cc2n1C", "note": "[Example 57, 6-(4-(4-isopropylpiperazin-1-yl)phenyl)-1,2-dimethyl-N-(1-(oxetan-3-yl)piperidin-4-yl)-1H-benzo[d]imidazol-4-amine]", "IC50": 188}
{"smiles": "Cc1nc2c(N3CCN(C4COC4)CC3)cc(-c3ccc(N4CCN(C(C)C)CC4)cc3)cc2n1C", "note": "[Example 58, 6-(4-(4-isopropylpiperazin-1-yl)phenyl)-1,2-dimethyl-4-(4-(oxetan-3-yl)piperazin-1-yl)-1H-benzo[d]imidazole]", "IC50": 860}
{"smiles": "COc1ccc(-c2nc3c(N4CCN(C5COC5)CC4)cc(-c4ccc(N5CCN(C(C)C)CC5)cc4)cc3n2C)cc1OC", "note": "[Example 59, 2-(3,4-dimethoxyphenyl)-6-(4-(4-isopropylpiperazin-1-yl)phenyl)-1-methyl-4-(4-(oxetan-3-yl)piperazin-1-yl)-1H-benzo[d]imidazole]", "IC50": 651}
{"smiles": "Cc1nc2c(N3CCC(CNC4COC4)CC3)cc(-c3ccc(N4CCN(C(C)C)CC4)cc3)cc2n1C", "note": "[Example 60, N-((1-(6-(4-(4-isopropylpiperazin-1-yl)phenyl)-1,2-dimethyl-1H-benzo[d]imidazol-4-yl)piperidin-4-yl)methyl)oxetan-3-amine]", "IC50": 535}
{"smiles": "Cc1nc2c(N3CCC(CNC4CCOCC4)CC3)cc(-c3ccc(N4CCN(C(C)C)CC4)cc3)cc2n1C", "note": "[Example 61, N-((1-(6-(4-(4-isopropylpiperazin-1-yl)phenyl)-1,2-dimethyl-1H-benzo[d]imidazol-4-yl)piperidin-4-yl)methyl)tetrahydro-2H-pyran-4-amine]", "IC50": 156}
{"smiles": "CC(C)N1CCN(c2ccc(-c3cc(NC4CCN(C5COC5)CC4)c4nc(-c5ccc(S(C)(=O)=O)cc5)n(C)c4c3)cc2)CC1", "note": "[Example 62, 6-(4-(4-isopropylpiperazin-1-yl)phenyl)-1-methyl-2-(4-(methylsulfonyl)phenyl)-N-(1-(oxetan-3-yl)piperidin-4-yl)-1H-benzo[d]imidazol-4-amine, 2 TFA]", "IC50": 111}
{"smiles": "CC(C)N1CCN(c2ccc(-c3cc(NCCN4CCOCC4)c4nc(-c5ccc(S(C)(=O)=O)cc5)n(C)c4c3)cc2)CC1", "note": "[Example 63, 6-(4-(4-isopropylpiperazin-1-yl)phenyl)-1-methyl-2-(4-(methylsulfonyl)phenyl)-N-(2-morpholinoethyl)-1H-benzo[d]imidazol-4-amine]", "IC50": 121}
